Source: patent US6429212B1, “Medicinal composition” (Ishihara Sangyo Kaisha Ltd., priority 1996, dated 2002)

Key:
[1] = test system: angiogenesis under skin of mice; experiment: Angiogenesis under skin of mice (b-FGF matrigel, amount of hemoglobin); assay type: in vivo, BALB/c male mice; set-up: key to Amount of hemoglobin, value in parentheses (Control = 100): % of control (control = 100), hemoglobin per matrigel
Experimental: By subcutaneously injecting a mixture having recombinant human fibroblast growth factor-basic added to matrigel, to the back of a mice, angiogenesis occurs under skin of the mice. By measuring the amount of hemoglobin in matrigel, angiogenesis can be quantified. Influences of the compounds of the present invention to angiogenesis were observed.
Matrigel (trademark; basement membrane matrix, phenol is not included, purchased from Becton Dickinson Labware) was added to Dulbecco's modified Eagle's medium (purchased from Sigma), so that the concentration was 9 mg/ml. Recombinant Human Fibroblast Growth Factor-basic (b-FGF, produced by Intergen) was added thereto, so that the concentration was 2 μg/700 μl. The mixture was subcutaneously injected to 6-week BALB/c male mice (Charles River Japan Inc.) in an amount of 700 μl per mouse. Everyday after matrigel injection, a suspension having the compound of the present invention added to 0.8% Tween 80 (purchased from Nacalai Tesque), so that the predetermined concentration could be obtained, was intraperitoneally injected to the mice. 8 days after matrigel injection, matrigel was taken out from the mice, which was then placed in 200 μl of 1% NH4OH at room temperature for 4 hours, to extract hemoglobin. The extraction and matrigel together were subjected to centrifugal separation (10000 rpm, 5 min). 100 μl of the obtained supernatant and 500 μl of Drabkin's reagent (purchased from Sigma) were mixed and left at room temperature. After left more than 15 minutes, absorbance of the supernatant at a wavelength of 540 nm was measured by using a spectrophotometer SPECTRA max 250 (produced by Molecular Devices). The amount of hemoglobin in the supernatant was obtained from the standard curve prepared by using hemoglobin standard (purchased from Sigma), and the amount of hemoglobin per matrigel obtained from a mouse was calculated.
The amount of the hemoglobin in each treatment fraction was corrected by the amount of hemoglobin wherein matrigel having no b-FGF added was injected to the mice, and 0.8% Tween 80 as a solvent alone was injected everyday.
Influences of the compounds of the present invention to angiogenesis under skin of mice were observed, in the same manner as in Test Example 8.

[2] = test system: TNF-α production or secretion by human leukemia cells HL-60 (TPA stimulation); experiment: Influence on TNF-α production or secretion by HL-60 cells stimulated by TPA (ELISA of supernatant); assay type: cell-based; details: HL-60, TPA 10 nM; for amount of TNF-α in the supernatant, TPA alone = 100%: 16 hours (Table 9); for Amount of TNF (%), TPA alone = 100%: compound 10 μM, 16 hours (Test Example 3)
Experimental: (§1) Human leukemia cells HL-60 produce tumor necrosis factor (TNF-α) by stimulation of Okadaic acid (9,10-Deepithio-9,10-didehydroacanthifolicin) or 12O-tetradecanoyl phorbol-13-acetate (TPA). Influences of the compounds of the present invention to production or secretion of TNF-α by them were observed.
The same operation was carried out as in Test Example 1, except that TPA (produced by Sigma) having a final concentration of 10 nM was used, instead of Okadaic acid having a final concentration of 50 nM.
The values in the Table are values obtained by supposing the amount of TNF-α in the supernatant of the culture medium when treated only with TPA having a final concentration of 10 nM, 100%.
Human leukemia cells (HL-60) produce tumor necrosis factor (TNF-α) by stimulation of 12O-tetradecanoyl phorbol-13-acetate (TPA). The influences of the compounds of the present invention to production of TNF-αby it were observed.
(§2) Human leukemia cells (HL-60) were cultured by using a RPMI 1640 culture medium (including 5% fetal bovine serum), in a carbonic acid gas incubator (5% CO2, humidified, 37° C.). Then, the cells were pre-cultured in a RPMI 1640 culture medium (including 10% fetal bovine serum). TPA was added thereto, so that the final concentration was 10 nM based on the HL-60 cells (5×10^5 cells/ml) in an exponentially growing stage. Then, the compound of the present invention was added thereto so that the predetermined concentration could be obtained, to prepare a cell suspension, which was then cultured in a carbonic gas incubator (5% CO2, humidified, 37° C.). In this culture, a multiplate having 24 holes (produced by Corning) was used, and the cell suspension was injected in an amount of 0.5 ml per hole, to culture the cells.
16 hours after the culture started, the cells were removed by centrifugation(1000-2000 rpm×10 min), and the amount of TNF-α in the supernatant was measured in accordance with the method of Amersham, by using human TNF-α ELISA system (produced by Amersham).
The values are obtained by supposing the amount of TNF-α when treated only with TPA having a final concentration of 10 nM, 100%.
The influences of the compounds of the present invention to production or secretion of TNF-α by TPA stimulation were observed, in the same manner as in Test Example 2.

[3] = test system: TNF-α production or secretion by human leukemia cells HL-60 (Okadaic acid stimulation); experiment: Influence on TNF-α production or secretion by HL-60 cells stimulated by Okadaic acid (ELISA of supernatant); assay type: cell-based; details: for amount of TNF-α in the supernatant, Okadaic acid alone = 100%: HL-60, Okadaic acid 50 nM, 16 hours (Table 8); for amount of TNF-α, Okadaic acid alone = 100%: HL-60, Okadaic acid stimulation (Table 14)
Experimental: as §1
as §2, with “bovine serum). Okadaic acid was added” for “bovine serum). TPA was added”, “concentration was 50 nM based” for “concentration was 10 nM based”, “a carbonic acid gas incubator” for “a carbonic gas incubator”
16 hours after the culture started, the cells were removed by centrifugation (1000-2000 rpm×10 min), and the amount of TNF-α in the supernatant was measured in accordance with the method of Amersham, by using human TNF-α ELISA system (produced by Amersham).
The values in the Table are values obtained by supposing the amount of TNF-αin the supernatant of the culture medium when treated only with Okadaic acid having a final concentration of 50 nM, 100%.
Influences of the compounds of the present invention to production or secretion of TNF-α by Okadaic acid stimulation were observed, in the same manner as in Test Example 1.

[4] = 5 mg/kg, experiment (b) (Table 15)
[5] = 5 mg/kg, experiment (b), Control 83.3 (Table 15)

SMILES	Amount of hemoglobin, value in parentheses (Control = 100) [1, 4]	Amount of hemoglobin [1, 5]	amount of TNF-α in the supernatant, TPA alone = 100% ([2]; compound 10 nM)	amount of TNF-α in the supernatant, TPA alone = 100% ([2]; compound 100 nM)	amount of TNF-α in the supernatant, TPA alone = 100% ([2]; compound 0.3 μM)	amount of TNF-α in the supernatant, Okadaic acid alone = 100% ([3]; compound 1 nM)	amount of TNF-α in the supernatant, Okadaic acid alone = 100% ([3]; compound 10 nM)	amount of TNF-α in the supernatant, Okadaic acid alone = 100% ([3]; compound 100 nM)	amount of TNF-α in the supernatant, Okadaic acid alone = 100% ([3]; compound 0.3 μM)	other results
C[C@H](c1ccccc1)N1C(=O)c2c(F)c(F)c(F)c(F)c2C1=O [Compound 18, (R)-2-(1-phenylethyl)-4,5,6,7-tetrafluoro-1H-isoindole-1,3-dione]	78	65.1 μg/gel	100%	101%	97%	97%	55%	8%	2%	
C[C@@H](c1cccc2ccccc12)N1C(=O)c2c(F)c(F)c(F)c(F)c2C1=O [Compound 49, (S)-2-(1-naphthylethyl)-4,5,6,7-tetrafluoro-1H-isoindole-1,3-dione]			100%	99%	101%	100%	102%	100%	101%	
C[C@H](c1cccc2ccccc12)N1C(=O)c2c(F)c(F)c(F)c(F)c2C1=O [Compound 50, (R)-2-(1-naphthylethyl)-4,5,6,7-tetrafluoro-1H-isoindole-1,3-dione]	79	65.4 μg/gel	100%	100%	100%	100%	88%	43%	2%	
CC(C)c1cccc(C(C)C)c1N1C(=O)c2ccccc2C1=O [Compound 202, N-(2.6-diisopropylphenyl)-phthalimide]										Amount of hemoglobin, value in parentheses (Control = 100) ([1]; 10 mg/kg, experiment (a) (Table 15)): 77; Amount of hemoglobin ([1]; 10 mg/kg, experiment (a), Control 307.3 (Table 15)): 235.4 μg/gel; Amount of hemoglobin, value in parentheses (Control = 100) ([1]; 100 mg/kg, experiment (a) (Table 15)): 50; Amount of hemoglobin ([1]; 100 mg/kg, experiment (a), Control 307.3 (Table 15)): 152.5 μg/gel; amount of TNF-α, Okadaic acid alone = 100% ([3]; compound 1 μM): 100%; amount of TNF-α, Okadaic acid alone = 100% ([3]; compound 3 μM): 80%; amount of TNF-α, Okadaic acid alone = 100% ([3]; compound 10 μM): 43%; amount of TNF-α, Okadaic acid alone = 100% ([3]; compound 30 μM): 20%; amount of TNF-α, Okadaic acid alone = 100% ([3]; compound 100 μM): 9%
CC(C)c1cccc(C(C)C)c1N1C(=O)c2cc3ccccc3cc2C1=O [Compound B-3, N-(2,6-diisopropylphenyl) 2,3-naphthalimide]										Amount of TNF (%), TPA alone = 100% [2]: 134%
C[C@H](C1CCCCC1)N1C(=O)c2c(F)c(F)c(F)c(F)c2C1=O [Compound 69, (R)-2-(1-cyclohexylethyl)-4,5,6,7-tetrafluoro-1H-isoindole-1,3-dione]	49	41.1 μg/gel	100%	102%	98%	101%	95%	59%	10%	Amount of hemoglobin, value in parentheses (Control = 100) ([1]; 1 mg/kg, experiment (b) (Table 15)): 93; Amount of hemoglobin ([1]; 1 mg/kg, experiment (b), Control 83.3 (Table 15)): 77.2 μg/gel
CC(C)c1cccc(C(C)C)c1N1C(=O)c2c(F)c(F)c(F)c(F)c2C1=O [Compound 203, N-(2,6-diisopropylphenyl)-4,5,6,7-tetra-fluoro-phthalimide]										Amount of hemoglobin, value in parentheses (Control = 100) ([1]; 1 mg/kg, experiment (a) (Table 15)): 69; Amount of hemoglobin ([1]; 1 mg/kg, experiment (a), Control 307.3 (Table 15)): 211.4 μg/gel; amount of TNF-α, Okadaic acid alone = 100% ([3]; compound 1 nM): 100%; amount of TNF-α, Okadaic acid alone = 100% ([3]; compound 3 nM): 93%; amount of TNF-α, Okadaic acid alone = 100% ([3]; compound 10 nM): 75%; amount of TNF-α, Okadaic acid alone = 100% ([3]; compound 30 nM): 42%; amount of TNF-α, Okadaic acid alone = 100% ([3]; compound 100 nM): 0%
C[C@@H](C1CCCCC1)N1C(=O)c2c(F)c(F)c(F)c(F)c2C1=O [Compound 68, (S)-2-(1-cyclohexylethyl)-4,5,6,7-tetrafluoro-1H-isoindole-1,3-dione]			103%	115%	124%	102%	101%	96%	65%	
CC(C)c1cccc(C(C)C)c1N1C(=O)Cc2ccccc2C1=O [Compound A-3, N-(2.6-diisopropylphenyl)-homophthalimide]										Amount of TNF (%), TPA alone = 100% [2]: 258%
O=C1c2ccccc2C(=O)N1c1ccccc1 [Compound 201, N-phenylphthalimide]										amount of TNF-α, Okadaic acid alone = 100% ([3]; compound 1 μM): 100%; amount of TNF-α, Okadaic acid alone = 100% ([3]; compound 3 μM): 100%; amount of TNF-α, Okadaic acid alone = 100% ([3]; compound 10 μM): 82%; amount of TNF-α, Okadaic acid alone = 100% ([3]; compound 30 μM): 60%; amount of TNF-α, Okadaic acid alone = 100% ([3]; compound 100 μM): 41%
